Data as given in patent US9302999B2, “Substituted triazoles as herbicides” (E. I. DU PONT DE NEMOURS AND COMPANY, priority 2012, dated 2016).

Columns and labels:
Assay type in all cases: in vivo
[1] = system: barnyardgrass (Echinochloa crus-galli); assay: Test B flooded paddy: barnyardgrass; details: Flood; 250 g ai/ha; applied to paddy water at 2-leaf stage; visually evaluated after 13 to 15 days
Outline: (§1)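 Greenhouse assay lasting 13 to 15 days. Treatment was into water flooding pots 3 cm deep, at the 2-leaf stage, with that level sustained afterwards. Scores compare treated with control plants visually, 100 denoting complete control and 0 no effect; a dash marks no test result.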

[2] = system: sedge, umbrella (small-flower umbrella sedge Cyperus difformis); assay: Test B flooded paddy: sedge, umbrella; details: Flood; 250 g ai/ha; applied to paddy water at 2-leaf stage; visually evaluated after 13 to 15 days
Outline: as §1

[3] = system: ducksalad (Heteranthera limosa); assay: Test B flooded paddy: ducksalad; details: Flood; 250 g ai/ha; applied to paddy water at 2-leaf stage; visually evaluated after 13 to 15 days
Outline: as §1

[4] = system: velvetleaf (Abutilon theophrasti); assay: Test A pre-/postemergence: velvetleaf
Outline: (§2)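 Rating scale 0–100 (100 = complete control), visual, ~10 days after application in the greenhouse. Applications: preemergence directed soil spray; postemergence at 1–2 leaves.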

[5] = system: crabgrass, large (large crabgrass, Digitaria sanguinalis); assay: Test A pre-/postemergence: crabgrass, large
Outline: as §2

corn (Zea mays) = assay: Test A pre-/postemergence: corn
Outline: as §2

[6] = system: morningglory (Ipomoea spp.); assay: Test A pre-/postemergence: morningglory
Outline: as §2

rice (Oryza sativa) = assay: Test B flooded paddy: rice; details: Flood; 250 g ai/ha; applied to paddy water at 2-leaf stage; visually evaluated after 13 to 15 days
Outline: as §1

[7] = system: wheat (Triticum aestivum); assay: Test A pre-/postemergence: wheat
Outline: as §2

[8] = system: pigweed (Amaranthus retroflexus); assay: Test A pre-/postemergence: pigweed
Outline: as §2

[9] = system: foxtail, giant (giant foxtail, Setaria faberii); assay: Test A pre-/postemergence: foxtail, giant
Outline: as §2

[10] = system: barnyardgrass (Echinochloa crus-galli); assay: Test A pre-/postemergence: barnyardgrass
Outline: as §2

[11] = Postemergence, 125 g ai/ha, 0 to 100 scale, 0 is no effect, 100 is complete control
[12] = Postemergence, 500 g ai/ha, visual rating on 0 to 100 scale (0 no effect, 100 complete control), approximately ten days
[13] = Preemergence, 125 g ai/ha, 0 to 100 scale (0 no effect, 100 complete control)
[14] = Preemergence, 500 g ai/ha, 0 to 100 scale, 0 is no effect, 100 is complete control
[15] = Preemergence, 125 g ai/ha, 0 to 100 scale where 0 is no effect and 100 is complete control
[16] = Preemergence, 500 g ai/ha, 0 to 100 scale (0 no effect, 100 complete control)

Cc1cc(Oc2nn(-c3ccc(F)cc3)nc2C)ccc1F [Compound 86]
0: Plant response rating, Barnyardgrass (0 to 100 scale, 0 is no effect, 100 is complete control) [1] | Plant response rating, Ducksalad (0 to 100 scale, 0 is no effect, 100 is complete control) [3] | Velvetleaf plant response rating [4, 11] | Velvetleaf plant response rating [4, 12] | Plant response rating, Velvetleaf [4, 13] | Plant response rating, Velvetleaf [4, 14] | Crabgrass, Large plant response rating [5, 11] | Crabgrass, Large plant response rating [5, 12] | Plant response rating, Crabgrass, Large [5, 13] | Plant response rating, Crabgrass, Large [5, 14] | Corn plant response rating (corn (Zea mays); [11]) | Corn plant response rating (corn (Zea mays); [12]) | Plant response rating, Corn (corn (Zea mays); [13]) | Plant response rating, Corn (corn (Zea mays); [14]) | Morningglory plant response rating [6, 11] | Morningglory plant response rating [6, 12] | Plant response rating, Morningglory [6, 13] | Plant response rating, Morningglory [6, 14] | Plant response rating, Rice (0 to 100 scale, 0 is no effect, 100 is complete control) (rice (Oryza sativa)) | Wheat plant response rating [7, 11] | Wheat plant response rating [7, 12] | Plant response rating, Wheat [7, 13] | Plant response rating, Wheat [7, 14] | Pigweed plant response rating [8, 11] | Pigweed plant response rating [8, 12] | Plant response rating, Pigweed [8, 13] | Plant response rating, Pigweed [8, 14] | Foxtail, Giant plant response rating [9, 11] | Foxtail, Giant plant response rating [9, 12] | Plant response rating, Foxtail, Giant [9, 13] | Plant response rating, Foxtail, Giant [9, 14] | Barnyardgrass plant response rating [10, 11] | Barnyardgrass plant response rating [10, 12] | Plant response rating, Barnyardgrass [10, 13] | Plant response rating, Barnyardgrass [10, 14]
50: Plant response rating, Sedge, Umbrella (0 to 100 scale, 0 is no effect, 100 is complete control) [2]

CCc1nn(-c2cccc(C(F)(F)F)c2)nc1Cc1cccc(C(F)(F)F)c1 [Compound 143]
80: Velvetleaf plant response rating [4, 12] | Crabgrass, Large plant response rating [5, 11] | Foxtail, Giant plant response rating [9, 11]
75: Plant response rating, Sedge, Umbrella (0 to 100 scale, 0 is no effect, 100 is complete control) [2]
20: Plant response rating, Velvetleaf [4, 16] | Plant response rating, Corn (corn (Zea mays); [16]) | Barnyardgrass plant response rating [10, 11]
90: Plant response rating, Crabgrass, Large [5, 15] | Morningglory plant response rating [6, 12] | Plant response rating, Foxtail, Giant [9, 15] | Plant response rating, Barnyardgrass [10, 16]
50: Corn plant response rating (corn (Zea mays); [12]) | Plant response rating, Morningglory [6, 11] | Barnyardgrass plant response rating [10, 12]
40: Plant response rating, Barnyardgrass (0 to 100 scale, 0 is no effect, 100 is complete control) [1] | Plant response rating, Velvetleaf [4, 11] | Corn plant response rating (corn (Zea mays); [11]) | Wheat plant response rating [7, 12]
30: Plant response rating, Rice (0 to 100 scale, 0 is no effect, 100 is complete control) (rice (Oryza sativa)) | Plant response rating, Barnyardgrass [10, 15]
0: Plant response rating, Ducksalad (0 to 100 scale, 0 is no effect, 100 is complete control) [3] | Plant response rating, Velvetleaf [4, 15] | Plant response rating, Corn (corn (Zea mays); [15]) | Plant response rating, Morningglory [6, 15] | Plant response rating, Morningglory [6, 16] | Plant response rating, Wheat [7, 15]
10: Plant response rating, Wheat [7, 11] | Plant response rating, Wheat [7, 16]
100: Crabgrass, Large plant response rating [5, 12] | Plant response rating, Crabgrass, Large [5, 16] | Plant response rating, Pigweed [8, 11] | Pigweed plant response rating [8, 12] | Plant response rating, Pigweed [8, 15] | Plant response rating, Pigweed [8, 16] | Foxtail, Giant plant response rating [9, 12] | Plant response rating, Foxtail, Giant [9, 16]

CCc1nn(-c2ccc(F)cc2)nc1Cc1cccc(C(F)(F)F)c1 [Compound 144]
0: Plant response rating, Velvetleaf [4, 15] | Plant response rating, Velvetleaf [4, 16] | Plant response rating, Corn (corn (Zea mays); [15]) | Plant response rating, Corn (corn (Zea mays); [16]) | Plant response rating, Morningglory [6, 15] | Plant response rating, Morningglory [6, 16] | Plant response rating, Wheat [7, 11] | Plant response rating, Wheat [7, 15] | Plant response rating, Wheat [7, 16] | Plant response rating, Barnyardgrass [10, 15]
10: Corn plant response rating (corn (Zea mays); [11]) | Barnyardgrass plant response rating [10, 11]
20: Plant response rating, Morningglory [6, 11] | Plant response rating, Rice (0 to 100 scale, 0 is no effect, 100 is complete control) (rice (Oryza sativa)) | Wheat plant response rating [7, 12]
90: Crabgrass, Large plant response rating [5, 12] | Morningglory plant response rating [6, 12] | Foxtail, Giant plant response rating [9, 12]
50: Velvetleaf plant response rating [4, 12] | Crabgrass, Large plant response rating [5, 11] | Plant response rating, Crabgrass, Large [5, 15] | Plant response rating, Pigweed [8, 15] | Plant response rating, Foxtail, Giant [9, 15]
40: Plant response rating, Ducksalad (0 to 100 scale, 0 is no effect, 100 is complete control) [3] | Plant response rating, Velvetleaf [4, 11]
100: Plant response rating, Crabgrass, Large [5, 16] | Plant response rating, Pigweed [8, 11] | Pigweed plant response rating [8, 12] | Plant response rating, Pigweed [8, 16] | Plant response rating, Foxtail, Giant [9, 16]
80: Plant response rating, Sedge, Umbrella (0 to 100 scale, 0 is no effect, 100 is complete control) [2]
30: Plant response rating, Barnyardgrass (0 to 100 scale, 0 is no effect, 100 is complete control) [1] | Corn plant response rating (corn (Zea mays); [12]) | Foxtail, Giant plant response rating [9, 11] | Barnyardgrass plant response rating [10, 12] | Plant response rating, Barnyardgrass [10, 16]

CCCc1nn(-c2ccc(F)cc2)nc1Cc1cccc(C(F)(F)F)c1 [Compound 149]
10: Plant response rating, Corn (corn (Zea mays); [15]) | Plant response rating, Morningglory [6, 15]
100: Velvetleaf plant response rating [4, 12] | Plant response rating, Crabgrass, Large [5, 16] | Morningglory plant response rating [6, 12] | Plant response rating, Pigweed [8, 11] | Pigweed plant response rating [8, 12] | Plant response rating, Pigweed [8, 16] | Plant response rating, Foxtail, Giant [9, 16]
40: Plant response rating, Barnyardgrass (0 to 100 scale, 0 is no effect, 100 is complete control) [1] | Corn plant response rating (corn (Zea mays); [12])
80: Plant response rating, Crabgrass, Large [5, 11] | Plant response rating, Foxtail, Giant [9, 11] | Barnyardgrass plant response rating [10, 12]
0: Plant response rating, Wheat [7, 15]
30: Plant response rating, Corn (corn (Zea mays); [11]) | Plant response rating, Morningglory [6, 16] | Plant response rating, Rice (0 to 100 scale, 0 is no effect, 100 is complete control) (rice (Oryza sativa)) | Wheat plant response rating [7, 12] | Plant response rating, Barnyardgrass [10, 11]
20: Plant response rating, Velvetleaf [4, 15] | Plant response rating, Corn (corn (Zea mays); [16]) | Plant response rating, Wheat [7, 11]
60: Plant response rating, Sedge, Umbrella (0 to 100 scale, 0 is no effect, 100 is complete control) [2] | Plant response rating, Ducksalad (0 to 100 scale, 0 is no effect, 100 is complete control) [3] | Plant response rating, Velvetleaf [4, 11] | Plant response rating, Barnyardgrass [10, 15]
50: Plant response rating, Velvetleaf [4, 16] | Plant response rating, Wheat [7, 16]
90: Crabgrass, Large plant response rating [5, 12] | Plant response rating, Crabgrass, Large [5, 15] | Plant response rating, Morningglory [6, 11] | Plant response rating, Pigweed [8, 15] | Foxtail, Giant plant response rating [9, 12] | Plant response rating, Foxtail, Giant [9, 15] | Plant response rating, Barnyardgrass [10, 16]

CC(C)c1nn(-c2ccc(F)cc2)nc1Cc1cccc(C(F)(F)F)c1 [Compound 150]
20: Plant response rating, Barnyardgrass (0 to 100 scale, 0 is no effect, 100 is complete control) [1] | Crabgrass, Large plant response rating [5, 12]
50: Pigweed plant response rating [8, 12]
0: Plant response rating, Sedge, Umbrella (0 to 100 scale, 0 is no effect, 100 is complete control) [2] | Plant response rating, Ducksalad (0 to 100 scale, 0 is no effect, 100 is complete control) [3] | Plant response rating, Velvetleaf [4, 11] | Plant response rating, Velvetleaf [4, 15] | Plant response rating, Velvetleaf [4, 16] | Plant response rating, Crabgrass, Large [5, 11] | Plant response rating, Crabgrass, Large [5, 15] | Plant response rating, Crabgrass, Large [5, 16] | Plant response rating, Corn (corn (Zea mays); [11]) | Plant response rating, Corn (corn (Zea mays); [15]) | Plant response rating, Corn (corn (Zea mays); [16]) | Plant response rating, Morningglory [6, 11] | Morningglory plant response rating [6, 12] | Plant response rating, Morningglory [6, 15] | Plant response rating, Morningglory [6, 16] | Plant response rating, Rice (0 to 100 scale, 0 is no effect, 100 is complete control) (rice (Oryza sativa)) | Plant response rating, Wheat [7, 11] | Wheat plant response rating [7, 12] | Plant response rating, Wheat [7, 15] | Plant response rating, Wheat [7, 16] | Plant response rating, Pigweed [8, 15] | Plant response rating, Pigweed [8, 16] | Plant response rating, Foxtail, Giant [9, 11] | Foxtail, Giant plant response rating [9, 12] | Plant response rating, Foxtail, Giant [9, 15] | Plant response rating, Foxtail, Giant [9, 16] | Plant response rating, Barnyardgrass [10, 11] | Barnyardgrass plant response rating [10, 12] | Plant response rating, Barnyardgrass [10, 15] | Plant response rating, Barnyardgrass [10, 16]
10: Velvetleaf plant response rating [4, 12] | Corn plant response rating (corn (Zea mays); [12]) | Plant response rating, Pigweed [8, 11]
